Results on four compounds are retold here after patent US20220135564A1, “DEUTERATED MITRAGYNINE ANALOGS AS SAFER OPIOID MODULATORS IN THE MITRAGYNINE CLASS” (The Trustees of Columbia University in the City of New York, priority 2019, published 2022).

Series [1] can be described thus: Mouse brain homogenate (MBH) stability and metabolite formation. The class given is in vitro ADME. The settings on record: 2 μM, 37° C., over 120 minutes. On the procedure: MBH Preparation. Male BALB/c mice (12-14 weeks old) were housed in polypropylene cages with free access to standard commercial food pellets and tap water. Animals were sacrificed by cervical dislocation immediately prior to brain homogenate preparation. Brains from 10 mice were fragmented into small pieces and homogenized in ice-cold artificial cerebrospinal fluid solution (ACSF: 126 mM NaCl, 2.68 mM KCl, 1 mM Na2HPO4, 0.88 mM MgSO4, 22 mM NaHCO3, 1.45 mM CaCl2, 10 mM HEPES, 11 mM D-glucose, pH 7.4) using a TH-01 OMNI homogenizer. Samples were centrifuged at 1500×g for 10 minutes. Supernatants were decanted and collected. Total protein concentration was determined by Bradford assay and equaled 17.7 mg/mL. The obtained brain homogenate was flash-frozen in liquid nitrogen. Aliquots were stored at −70° C. until use.
MBH Stability and Metabolite Formation. […] The incubation medium consisted of artificial cerebrospinal fluid solution (ACSF: 126 mM NaCl, 2.68 mM KCl, 1 mM Na2HPO4, 0.88 mM MgSO4, 22 mM NaHCO3, 1.45 mM CaCl2, 10 mM HEPES, 11 mM D-glucose, pH 7.4) with 2 mg of brain protein per mL. Test compounds (2 μM, final solvent concentration 1%) were incubated with brain homogenate at 37° C., shaking at 100 rpm. Incubations were performed in duplicate. Six time points over 120 minutes were analyzed.

The test system of series [2] is Male Sprague-Dawley rats. As to the kind of experiment: Rat tail-flick assay (analgesic activity). The settings on record: oral gavage, 50° C. hot-water bath, 30 minutes after administration. The class given is in vivo. How it is done: Animals. Male Sprague-Dawley rats, aged 7-8 weeks, were used in experiments. Animals were housed under controlled temperatures and 12-hour light/dark cycles (lights on at 06:00-18:00 h), with ad libitum food and water. The study was approved by the Institutional Animal Care and Use Committee (IACUC) at WuXi AppTec (Shanghai). WuXi's animal facilities and IACUC are fully accredited by the Association for Assessment and Accreditation of Laboratory Animal Care International (AAALAC). All efforts were made to minimize animal suffering.
Drugs and Drug Administration. Drugs were prepared as described above and administered by oral gavage at a volume of 5 mL/kg in de-ionized water acidified with acetic acid.
Tail-Flick. Analgesic activity was assessed in the tail-flick assay 30 minutes (peak effect) after administration of vehicle and each dose of drug (n=8 per treatment). Animals were tested for their latency to withdraw their tails from a hot water bath maintained at 50° C. with a room temperature of 22° C. A cutoff time of 7 seconds was used to prevent tissue damage. Data were analyzed as percent maximal effect, % MPE, which was calculated according to the formula: % MPE=[(observed latency−vehicle latency)/(maximal latency−vehicle latency)]×100. Dose-response curves were fit by nonlinear regression (GraphPad Prism, La Jolla, Calif.).
In general terms: In hot-plate and tail-flick tests a longer latency is read as antinociception.

Series [3] can be described thus: HLM metabolite formation. The settings on record: 2 μM, 37° C., over 40 minutes. On the procedure:
HLM Metabolite Formation. Pooled HLM from 50 adult male and female donors (XenoTech H0630, lot 1610016) were used. Microsomal incubations of mitragynine and 3-DM were carried out in 96-well plates in 5 aliquots of 40 μL each (one for each time point). Liver microsomal incubation medium contained PBS (100 mM, pH 7.4), MgCl2 (3.3 mM), NADPH (3 mM), glucose-6-phosphate (5.3 mM), glucose-6-phosphate dehydrogenase (0.67 units/mL) with 0.42 mg of liver microsomal protein per ml. Control incubations were performed replacing the NADPH-cofactor system with PBS. Test compounds (2 μM, final solvent concentration 1.6%) were incubated with microsomes at 37° C., shaking at 100 rpm. Incubations were performed in duplicate. Five time points over 40 minutes were analyzed. The reactions were stopped by adding 8 volumes of 90% acetonitrile-water to incubation aliquots, followed by protein sedimentation by centrifugation at 5500 rpm for 3 minutes. Supernatants were analyzed for parent compound remaining and metabolites DHM (both mitragynine and 3-DM incubations), 7-OH (mitragynine incubations), and 3-d-7-OH (3-DM incubations), using a fit-for-purpose liquid chromatography-tandem mass spectrometry (LC-MS/MS) method, with authentic samples of each analyte used for calibration and identification.

Series [4] is described as follows: Pharmacokinetics in C57BL/6 mice, plasma and brain metabolite concentrations. The settings on record: male C57BL/6 mice, 10 mg/kg s.c., 0.083-24 h. How it is done:
Animals. Healthy male C57BL/6 mice (8-12 weeks old) weighing between 19 to 28 g were procured from Global, India. Four mice were housed in each cage. Temperature and humidity were maintained at 22±3° C. and 30-70%, respectively and illumination was controlled on a 12-h light/dark cycle. Temperature and humidity were recorded by an auto-controlled data logger system. All animals were provided a laboratory rodent diet (Envigo Research Private Ltd, Hyderabad, India) and reverse osmosis water treated with ultraviolet light was provided ad libitum.
Drugs. Mitragynine and 3-DM were dissolved in normal saline made slightly acidic (˜pH 3) with 1M aqueous HCl. Drugs were administered subcutaneously at a volume of 10 mL/kg body weight and a dose of 10 mg/kg.
Pharmacokinetics. Blood samples (approximately 60 μL) were collected under light isoflurane anesthesia from the retro orbital plexus at 0.083, 0.25, 0.5, 1, 2, 4, 8 and 24 h (4 animals per time point). Plasma samples were separated by centrifugation of whole blood and stored below −70° C. until bioanalysis. Immediately after collection of blood, mice were euthanized and brain samples were collected at 0.083, 0.25, 0.5, 1, 2, 4, 8 and 24 h (4 animals per time point). Brain samples were homogenized using ice-cold phosphate buffered saline (pH 7.4) and homogenates were stored below −70° C. until analysis. Total homogenate volume was three times the tissue weight. Aliquots (25 μL) of each study sample (dilution factor applied for several samples) or spiked calibration standard were added to individual micro-centrifuge tubes followed by 100 μL of internal standard solution prepared in acetonitrile (Glipizide, 500 ng/mL; except for blank, where 100 μL of acetonitrile was added). Samples were vortexed for 5 minutes and then centrifuged for 5 minutes at a speed of 4000 rpm at 4° C. Following centrifugation, supernatants were analyzed for metabolites DHM (both mitragynine and 3-DM treatment) and 7-OH (mitragynine treatment) or 3-d-7-OH (3-DM treatment), using a fit-for-purpose liquid chromatography-tandem mass spectrometry (LC-MS/MS) method, with authentic samples of each analyte used for calibration and identification.

Series [5] in a line: MS9 metabolite formation (M1, M4, M6) from mitragynine and 3-DM. Type of series: in vitro ADME, mouse. The settings on record: 2 μM, 37° C., over 60 minutes, MS peak area, compared to mitragynine. How it is done: MS9 Metabolite Formation. Liver S9 fraction pooled from male CD-1 mice was used. […] Control incubations were performed replacing the cofactor system with phosphate buffer. […] Incubations were performed in duplicate. Five time points over 60 minutes were analyzed. […] Supernatants were analyzed for remaining parent compound and metabolites by liquid chromatography-tandem mass spectrometry (LC-MS/MS).

The nature of series [6]: Pharmacokinetics in 129S1 mice, brain metabolite concentrations at 15 minutes. The settings on record: male 129S1 mice, 10 mg/kg s.c.
Series [7] in a line: Stability and metabolite formation in dog plasma. Type of series: in vitro ADME. Particulars: 1 μM, 37° C., over 120 minutes. On the procedure: Stability and Metabolite Formation in Dog Plasma. Beagle dog plasma with Na citrate (Innovatine Research, Inc., lot #IBG-NaCitrate-28323) was used in this study. Plasma incubations were carried out in 5 aliquots of 70 μL each (one for each time point), in duplicate. Test compounds (1 μM, final DMSO concentration 1%) were incubated at 37° C. with shaking at 100 rpm. Five time points over 120 minutes were analyzed. The reactions were stopped by adding 400 μL of acetonitrile-methanol mixture (1:1) with subsequent plasma protein sedimentation by centrifugation at 5500 rpm for 5 minutes.

Series [8] can be described thus: Simulated gastric fluid (SGF) incubations monitored by NMR. The class given is physicochemical. The settings on record: deuterated SGF, 1.3 mg/mL, room temperature. How it is done:
SGF Incubations. Deuterated SGF (to permit direct NMR monitoring of the reactions) was prepared by combining NaCl (10 mg) and 37% DCl in D2O (35 μL) and diluting up to a final volume of 5.0 mL with D2O. Solutions of 7-OH and 3-d-7-OH in deuterated SGF were prepared at a concentration of 1.3 mg/mL containing N-methyl-2-pyrrolidone (NMP) as an internal standard (IS) at a concentration of 3.33 μL/mL and the reaction mixtures were left to stand at room temperature. NMR spectra were recorded on a Bruker 500 MHz instrument at the following time points: 35, 65, 125, 245, 365, and 1440 minutes (relative to time of solution mixing). Chemical shifts were referenced to the D2O residual solvent peak at 4.79 ppm. Decomposition of parent compounds was quantified by the peak area ratio of a doublet at 6.63 ppm (corresponding to 7-OH and 3-d-7-OH) and a singlet at 2.84 ppm (corresponding to IS). These ratios, calculated at each time point, were normalized to the ratio determined at 35 minutes to obtain values as percent remaining (100% at 35 minutes). Concentration of DHM was determined at each time point by comparing the peak areas of a doublet at 6.70 ppm (corresponding to DHM) and a singlet at 2.84 ppm (corresponding to IS) and using the known concentration of internal standard (3.33 μL/mL=34.5 mM). The concentration of DHM formed from 3-d-7-OH was below the lower limit of quantitation of -0.1 mM at the 35-, 65-, and 125-minute time points.

The mark [9] stands for this setting: compared to 7-OH from mitragynine.
Where [10] appears, read: 35-1440 minutes, compared to 7-OH.

Where only a bound is given, the exact number is not on record here.

For the compound `CC[C@@H]1CN2CCc3c([nH]c4cccc(OC)c34)[C@@H]2C[C@@H]1/C(=C\OC)C(=O)OC` [Mitragynine], the “decomposition of parent compound in MBH” value in series [1] is recorded as “unstable”. The “analgesic effect in the tail-flick assay” value in series [2] is “dose-dependent analgesic effects”.
Turning to `[2H][C@@]12C[C@H](/C(=C\OC)C(=O)OC)[C@H](CC)CN1CCc1c2[nH]c2cccc(OC)c12` [3-DM, 3-Deuteromitragynine], the “formation of 7-hydroxy active metabolite (3-d-7-OH) in HLMs” value in series [3] (setting [9]) is listed as “little effect”. For the same compound, the “concentration of toxic metabolite DHM formed in HLMs” value in series [3] (compared to mitragynine) is recorded as “greatly attenuated”. The “decomposition of parent compound in MBH” value in series [1] is “attenuated the decomposition”. Also, in series [1] (compared to mitragynine), the “formation of DHM in MBH” value is “attenuated formation of DHM”. Also, in series [4] (setting [9]), the “brain concentration of active metabolite 3-d-7-OH” value was “no effect” and the “plasma concentration of active metabolite 3-d-7-OH” value was “no effect”. Besides, in series [4] (compared to mitragynine), the “brain concentration of DHM” value is listed as “greatly attenuated” and the “plasma concentration of DHM” value is “greatly attenuated”. Further, in series [5], the “formation of metabolite M1 in MS9” value is on record as “greatly attenuated”, the “formation of metabolite M4 in MS9” value is given as “greatly attenuated” and the “formation of metabolite M6 in MS9” value is “greatly attenuated”. For the same compound, in series [2], the “analgesic effect in the tail-flick assay” value is “dose-dependent analgesic effects”. Further, the “brain concentration of 7-hydroxy active metabolite (3-d-7-OH)” value in series [6] (setting [9]) was “little effect”. Further, the “brain concentration of DHM” value in series [6] (compared to mitragynine) is on record as “greatly attenuated”.
Consider `CC[C@@H]1CN2CC[C@@]3(O)C(=Nc4cccc(OC)c43)[C@@H]2C[C@@H]1/C(=C\OC)C(=O)OC` [7-OH, 7-Hydroxymitragynine, reference compound], for which the “decomposition of parent compound in dog plasma” value in series [7] is listed as “unstable”.
Consider `[2H][C@@]12C[C@H](/C(=C\OC)C(=O)OC)[C@H](CC)CN1CC[C@@]1(O)C2=Nc2cccc(OC)c21` [3-d-7-OH, 3-Deutero-7-hydroxymitragynine], for which, in series [8] (setting [10]), the “decomposition of parent compound in SGF” value was “did not slow decomposition” and the “formation of toxic metabolite DHM in SGF” value is reported as “greatly attenuated”. For the same compound, in series [8] (35-, 65-, and 125-minute time points, below lower limit of quantitation), the “concentration of DHM formed in SGF” value is < -100 µM. In addition, the “decomposition of parent compound in dog plasma” value in series [7] is “attenuated the decomposition”. In addition, in series [7] (compared to 7-OH), the “formation of DHM in dog plasma” value is “attenuated formation of DHM”.
